Results reported in patent US10463044B2, “Molecules that inhibit efflux pumps in multi-drug resistant bacteria and uses thereof” (priority 2014, dated 2019).
Converted amounts (≈) assume the structure as drawn. Like-named read-outs stand apart in the source and are kept apart here.

Experiments:
[1] = test system: K. pneumoniae (ATCC BAA 2146); test: MIC, K. pneumoniae; format: cell-based, Klebsiella pneumoniae; conditions: Klebsiella pneumoniae, BAA2146; read-out: Minimal Inhibitory Concentrations (MIC) K. pneumoniae
Text: (§1) K. pneumoniae (ATCC BAA 2146; another Gram-negative bacterium) that expresses multiple classes of efflux pumps and NDM-1 gene was also used. This K. pneumoniae is a clinically relevant strain that was isolated from a patient. Gram-positive S. aureus 1199B was used that overexpresses the NorA efflux pump. Since ethidium bromide and norfloxacin are the substrates of efflux pumps, S. aureus 1199B was used to evaluate the activity of efflux pumps in the presence of the hydraphiles and other membrane disruptors.
(§2) The minimal inhibitory concentrations (MIC) of all the compounds against three bacterial strains were first determined using the microtiter technique as described above. […] Antimicrobial property of hydraphiles is attributed to the disruption of ion homeostasis in bacteria.

[2] = test system: K. pneumoniae (ATCC BAA 2146); test: Recovery of antibiotic activity against K. pneumoniae by hydraphiles; format: cell-based, Klebsiella pneumoniae
Method: (§3) However, the bacterial strains used herein are multidrug resistant and the effect of hydraphiles on the inhibition of resistance mechanism (efflux pumps) was not known. The hydraphiles and the controls were tested next to see whether they could recover the activity of antibiotics against efflux pump expressing Gram-positive and Gram-negative bacteria. The MIC of antibiotics were determined in the presence of ½ [MIC] or ¼ [MIC] of each hydraphile or the controls used.

S. aureus 1199B = test: MIC, S. aureus 1199B; format: cell-based, Staphylococcus aureus
Text: as §1, §2

DH5α E. coli [3] = test: Combination of lariat ether and antibiotic against DH5α E. coli; format: cell-based, Escherichia coli;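 further: E. coli grown in test-tube liquid culture at a fixed total volume of 2 mL, with the amphiphile and the antibiotic both added to each tube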
Method: The volume of water added was between 12 to 0.5 μL. The volume of water added was not constant but the volume of media was changed so that the total volume was kept constant at 2 mL.
(§6) Steps 1-7, described in the MIC procedure, shown in Example 2, were followed. • 2. While the E. coli grew, the appropriate volume of compound was added to each test tube. • 3. Antibiotics were added at the required volume of solution to obtain the desired concentration in each test tube. […] Each test tube was vortexed for 2-3 seconds. • 5. Steps 10-12 from the MIC procedure, shown in Example 2, were then executed.

K-12 E. coli [4] = test: MIC, K-12 E. coli; format: cell-based, Escherichia coli; conditions: compound alone
Text: (§4) Minimal Inhibitory Concentration (MIC) Procedure. […] Streak the E. coli (DH5α or K-12 MG1655) strain on L.B agar plates. […] Prepare initial concentration of all the compounds required. • 5. […] Vortex each test tube for 2-3 seconds. • 9. […] Vortex each test tube for 2-3 seconds. • 11.

[5] = test system: tetracycline resistant E. coli (tetA efflux pump); format: cell-based, Escherichia coli
Method: as §3

HEK-293 cells = test: Toxicity of lariat ethers to HEK-293 cells (MTT assay); format: cell-based
Text: The error bars represent the standard error. […]

B. subtilis = test: Minimum inhibitory concentration (MIC), B. subtilis; format: cell-based, Bacillus subtilis; conditions: compound alone
Method: Among the organisms studied are several strains of the bacterium E. coli. […] Experiments were conducted to determine the MIC values for the synthetic amphiphiles known as lariat ethers according to the procedures described in Antimicrobial M07-A9: Methods for Dilution Antimicrobial Susceptibility Tests for Bacteria that Grow Aerobically; Clinical and Laboratory Standards Institute, 2012; Vol. 32, 67 pp. MIC values so determined for several lariat ethers and for several antibiotics are shown in Table 1.

S. cerevisiae = test: Minimum inhibitory concentration (MIC), S. cerevisiae; format: cell-based, Saccharomyces cerevisiae; conditions: compound alone
E. coli = test: Minimum inhibitory concentration (MIC), E. coli; format: cell-based, Escherichia coli; conditions: compound alone
Text: (§5) Among the organisms studied are several strains of the bacterium E. coli.
as §4

DH5α E. coli [6] = format: cell-based, Escherichia coli; conditions: compound alone
Text: as §5, §4

[7] = test system: tetracycline resistant E. coli (tetA efflux pump); test: microbe, parasite or virus in culture; format: cell-based, Escherichia coli; conditions: compound alone; tetracycline resistant E. coli
Text: as §5
Minimal Inhibitory Concentration (MIC) Procedure. […] Streak the E. coli (DH5α or K-12 MG1655) strain on L.B agar plates. […] Prepare initial concentration of all the compounds required. • 5. […] Vortex each test tube for 2-3 seconds. • 9. […] Vortex each test tube for 2-3 seconds. • 11. […]
as §2

K-12 E. coli [8] = test: Combination of amphiphile and antibiotic against K-12 E. coli; format: cell-based, Escherichia coli
Method: as §6

[9] = rifampicin, amphiphile used 8 μM, 0.4 vol-% DMSO
[10] = rifampicin, amphiphile used 16 μM, 0.4 vol-% DMSO
[11] = rifampicin, amphiphile used 18 μM, 0.4 vol-% DMSO
[12] = rifampicin, amphiphile used […] μM, 0.4 vol-% DMSO
[13] = tetracycline, amphiphile used 4 μM, 0.4 vol-% DMSO
[14] = tetracycline, amphiphile used 16 μM, 0.4 vol-% DMSO
[15] = tetracycline, amphiphile used 18 μM, 0.4 vol-% DMSO
[16] = tetracycline, amphiphile used […] μM, 0.4 vol-% DMSO
[17] = Rifampicin, amphiphile used 6 μM
[18] = Tetracycline, amphiphile used 6 μM

O=C(O)c1cn(C2CC2)c2cc(N3CCNCC3)c(F)cc2c1=O [Ciprofloxacin]
MIC [1]: 700 µM (≈ 232 µg/mL)
recovery of ciprofloxacin activity by hydraphiles [2]: 10 fold
susceptibility of S. aureus 1199B (S. aureus 1199B): resistant

CCCCCCCCCCCN1CCOCCOCCN(CCCCCCCCCCC)CCOCCOCC1 [C11 lariat ether, N,N′-bis(n-undecyl)-4,13-diaza-18-crown-6]
Antibiotic Used (μM) in combination (DH5α E. coli [3]; [9]): 15 µM
Fold Enhancement (DH5α E. coli [3]; [9]): 4 fold
Antibiotic Used (μM) in combination (DH5α E. coli [3]; [10]): 6 µM
Fold Enhancement (DH5α E. coli [3]; [10]): 10 fold
Antibiotic Used (μM) in combination (DH5α E. coli [3]; [11]): 3 µM
Fold Enhancement (DH5α E. coli [3]; [11]): 20 fold
Antibiotic Used (μM) in combination (DH5α E. coli [3]; [12]): 6 µM
Fold Enhancement (DH5α E. coli [3]; [12]): 10 fold
Antibiotic Used (μM) in combination (DH5α E. coli [3]; [13]): 3 µM
Fold Enhancement (DH5α E. coli [3]; [13]): 4 fold
Antibiotic Used (μM) in combination (DH5α E. coli [3]; [14]): 0.25 µM
Fold Enhancement (DH5α E. coli [3]; [14]): 48 fold
Antibiotic Used (μM) in combination (DH5α E. coli [3]; [15]): 1.5 µM
Fold Enhancement (DH5α E. coli [3]; [15]): 8 fold
Antibiotic Used (μM) in combination (DH5α E. coli [3]; [16]): 1 µM
Fold Enhancement (DH5α E. coli [3]; [16]): 12 fold
MIC (K-12 E. coli [4]): 24 µM (≈ 13.7 µg/mL)
Antibiotic Used (μM) in combination ([5]; amphiphile used 8 μM): 175 µM
Fold Enhancement ([5]; amphiphile used 8 μM): 5 fold
Antibiotic Used (μM) in combination ([5]; amphiphile used 16 μM): 87 µM
Fold Enhancement ([5]; amphiphile used 16 μM): 10 fold
Antibiotic Used (μM) in combination ([5]; amphiphile used 18 μM): 87 µM
Fold Enhancement ([5]; amphiphile used 18 μM): 10 fold
Antibiotic Used (μM) in combination ([5]; amphiphile used […] μM): 87 µM
Fold Enhancement ([5]; amphiphile used […] μM): 10 fold
LD50 to HEK-293 (HEK-293 cells): 22 µM
MIC (μM) B. subtilis (B. subtilis): 9 µM (≈ 5.14 µg/mL)
MIC (μM) S. cerevisiae (S. cerevisiae): 1.5 µM (≈ 0.856 µg/mL)
MIC (μM) E. coli (E. coli): 24 µM (≈ 13.7 µg/mL)
MIC (DH5α E. coli [6]): 24 µM (≈ 13.7 µg/mL)
MIC [7]: 24 µM (≈ 13.7 µg/mL)
Antibiotic Used (μM) in combination (K-12 E. coli [8]; [17]): 10 µM
Fold Enhancement (K-12 E. coli [8]; [17]): 2 fold
Antibiotic Used (μM) in combination (K-12 E. coli [8]; [18]): 2.5 µM
Fold Enhancement (K-12 E. coli [8]; [18]): ~2 fold

CO[C@H]1/C=C/O[C@@]2(C)Oc3c(C)c(O)c4c(O)c(c(/C=N/N5CCN(C)CC5)c(O)c4c3C2=O)NC(=O)/C(C)=C\C=C\[C@H](C)[C@H](O)[C@@H](C)[C@@H](O)[C@@H](C)[C@H](OC(C)=O)[C@@H]1C [rifampicin, reference compound]
MIC (K-12 E. coli [4]; Escherichia coli): 20 µM (≈ 16.5 µg/mL)
MIC (DH5α E. coli [6]): 60 µM (≈ 49.4 µg/mL)

N,N′-di-n-octyl-4,13-diaza-18-crown-6 [C8 lariat ether]
Antibiotic Used (μM) in combination (DH5α E. coli [3]; rifampicin, amphiphile used 40 μM, 0.4 vol-% DMSO): 3 ± 1 µM
Antibiotic Used (μM) in combination (DH5α E. coli [3]; rifampicin, amphiphile used 60 μM, 0.4 vol-% DMSO): 3 ± 1 µM
Antibiotic Used (μM) in combination (DH5α E. coli [3]; rifampicin, amphiphile used 80 μM, 0.4 vol-% DMSO): 3 ± 1 µM
Antibiotic Used (μM) in combination (DH5α E. coli [3]; tetracycline, amphiphile used 20 μM, 0.4 vol-% DMSO): 12 µM
Antibiotic Used (μM) in combination (DH5α E. coli [3]; tetracycline, amphiphile used 30 μM, ≤0.6 vol-% DMSO): 3 µM
Antibiotic Used (μM) in combination (DH5α E. coli [3]; tetracycline, amphiphile used 40 μM, 0.4 vol-% DMSO): 2 µM
Antibiotic Used (μM) in combination (DH5α E. coli [3]; tetracycline, amphiphile used 60 μM, 0.4 vol-% DMSO): 2 µM
Antibiotic Used (μM) in combination (DH5α E. coli [3]; tetracycline, amphiphile used 80 μM, 0.4 vol-% DMSO): 0.5 µM
Antibiotic Used (μM) in combination (DH5α E. coli [3]; tetracycline, amphiphile used 100 μM, 0.4 vol-% DMSO): 0.25 µM
MIC (K-12 E. coli [4]): 300 µM
Antibiotic Used (μM) in combination ([5]; amphiphile used 40 μM): 233 µM
Fold Enhancement ([5]; amphiphile used 40 μM): 4 fold
Antibiotic Used (μM) in combination ([5]; amphiphile used 60 μM): 175 µM
Fold Enhancement ([5]; amphiphile used 60 μM): 5 fold
Antibiotic Used (μM) in combination ([5]; amphiphile used 80 μM): 87 µM
Fold Enhancement ([5]; amphiphile used 80 μM): 10 fold
LD50 to HEK-293 (HEK-293 cells): 33 µM
MIC (μM) B. subtilis (B. subtilis): 105 µM
MIC (μM) S. cerevisiae (S. cerevisiae): 25 µM
MIC (μM) E. coli (E. coli): 120 µM
MIC (DH5α E. coli [6]): > 240 µM
MIC (DH5α E. coli [6]; listed as C8 Lariat): 120 µM
MIC (DH5α E. coli [6]; listed as n-C8): >120 µM
MIC [7]: 120 µM
Antibiotic Used (μM) in combination (K-12 E. coli [8]; Rifampicin, amphiphile used 32 μM): 10 µM
Antibiotic Used (μM) in combination (K-12 E. coli [8]; Rifampicin, amphiphile used […] μM): 5 µM
Antibiotic Used (μM) in combination (K-12 E. coli [8]; Tetracycline, amphiphile used […] μM): 2.5 µM

N,N′-di-n-decyl-4,13-diaza-18-crown-6 [C10 lariat ether]
MIC (K-12 E. coli [4]): 12 µM
Antibiotic Used (μM) in combination ([5]; amphiphile used 6 μM): 225 µM
Fold Enhancement ([5]; amphiphile used 6 μM): 4 fold
Antibiotic Used (μM) in combination ([5]; amphiphile used 9 μM): 56 µM
Fold Enhancement ([5]; amphiphile used 9 μM): 16 fold
toxicity to HEK-293 compared among lariat ethers (HEK-293 cells): highest toxicity
MIC (μM) B. subtilis (B. subtilis): 2.8 µM
MIC (μM) S. cerevisiae (S. cerevisiae): 2.8 µM
MIC (μM) E. coli (E. coli): 11 µM
MIC (DH5α E. coli [6]): 12 µM
MIC [7]: 16 µM
Antibiotic Used (μM) in combination (K-12 E. coli [8]; [17]): 5 µM
